IC50 data for 14 compounds are collected here from patent publication US20130109682A1, “CYCLIC ETHER COMPOUNDS USEFUL AS KINASE INHIBITORS” (NOVARTIS AG, priority 2010, published 2013).

For orientation: IC50 means the concentration that inhibits the measured activity by half.

What all share (type): biochemical
The target in assay [1] is PIM1 (Homo sapiens, UniProt P11309). Nature of the assay: Pim 1 AlphaScreen assay (high ATP). Particulars: read-out: Pim1 IC50. The protocol: (§1) Pim1, Pim2, Pim3 AlphaScreen Assay Pim 1, Pim 2 & Pim 3 AlphaScreen assays using high ATP (11-125×ATP Km) were used to determine the biochemical activity of the inhibitors. The activity of Pim 1, Pim 2, & Pim 3 is measured using a homogeneous bead based system quantifying the amount of phosphorylated peptide substrate resulting from kinase-catalyzed phosphoryl transfer to a peptide substrate. Compounds to be tested are dissolved in 100% DMSO and directly distributed to a white 384-well plate at […] per well. To start the reaction, 5 μl of 100 nM Bad peptide (Biotin-AGAGRSRHSSYPAGT —OH) and ATP (concentrations described below) in assay buffer (50 mM Hepes, pH=7.5, 5 mM MgCl2, 0.05% BSA, 0.01% Tween-20, 1 mM DTT) is added to each well. This is followed by the addition of 5 μl/well of Pim 1, Pim 2 or Pim 3 kinase in assay buffer (concentrations described below). Final assay concentrations (described below) are in 2.5% DMSO. The reactions are performed for ˜2 hours, then stopped by the addition of 10 μl of 0.75 μg/ml anti-phospho Ser/Thr antibody (Cell Signaling), 10 μg/ml Protein A AlphaScreen beads (Perkin Elmer), and 10 μg/ml streptavidin coated AlphaScreen beads in stop/detection buffer (50 mM EDTA, 95 mM Tris, pH=7.5, 0.01% Tween-20). The stopped reactions are incubated overnight in the dark. The phosphorylated peptide is detected via an […] initiated chemiluminescence/fluorescence cascade using the Envision plate reader (Perkin Elmer).
PIM1, sequence (P11309 whole entry): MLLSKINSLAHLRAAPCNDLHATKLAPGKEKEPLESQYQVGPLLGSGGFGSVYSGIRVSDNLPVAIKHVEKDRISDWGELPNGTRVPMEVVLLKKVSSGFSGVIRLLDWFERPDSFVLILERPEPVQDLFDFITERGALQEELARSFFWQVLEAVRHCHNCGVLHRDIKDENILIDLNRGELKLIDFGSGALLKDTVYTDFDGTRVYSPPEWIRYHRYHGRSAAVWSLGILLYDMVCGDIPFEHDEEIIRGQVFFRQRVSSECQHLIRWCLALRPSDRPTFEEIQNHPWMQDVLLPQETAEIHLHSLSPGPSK
(§2) IC50, the half maximal inhibitory concentration, represents the concentration of a test compound that is required for 50% inhibition of its target in vitro under the described assay conditions.
(Alpha assays give light when donor and acceptor beads are brought close together.)

Assay [2] addresses PIM3 (Homo sapiens, UniProt Q86V86). Description: Pim 3 AlphaScreen assay (high ATP). Particulars: read-out: Pim3 IC50. The protocol: as §1, §2
In assay [3] the target is PIM2 (Homo sapiens, UniProt Q9P1W9). Description: Pim 2 AlphaScreen assay (high ATP). Particulars: read-out: Pim2 IC50. Put shortly: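 This is a bead-based AlphaScreen run at high ATP (11-125× Km) with biotin-Bad peptide (100 nM in the substrate mix), in 50 mM Hepes pH 7.5, 5 mM MgCl2, 0.05% BSA, 0.01% Tween-20, 1 mM DTT and 2.5% DMSO final. After ~2 h the reaction was stopped with EDTA. Phospho-peptide was detected overnight with anti-phospho Ser/Thr antibody on Protein A and streptavidin beads, giving IC50.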
PIM2, sequence (Q9P1W9 whole entry): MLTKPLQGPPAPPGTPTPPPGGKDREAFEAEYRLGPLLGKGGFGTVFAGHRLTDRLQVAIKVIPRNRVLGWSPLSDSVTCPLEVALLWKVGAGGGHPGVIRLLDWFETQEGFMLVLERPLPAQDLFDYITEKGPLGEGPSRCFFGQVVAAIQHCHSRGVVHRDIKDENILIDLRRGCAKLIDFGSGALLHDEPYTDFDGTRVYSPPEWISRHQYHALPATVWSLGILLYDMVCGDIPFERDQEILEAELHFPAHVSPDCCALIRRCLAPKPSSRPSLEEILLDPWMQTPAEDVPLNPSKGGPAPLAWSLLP

Assay [4] concerns the target GSK3β (Homo sapiens, UniProt P49841). Nature of the assay: GSK3β ATP depletion assay. Particulars: ATP depletion assay; read-out: GSK3b IC50. Put shortly: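 Human GSK3β (5 nM) preincubated 15 min with 10 μM biotinylated phospho-CREB peptide in pH 7.5 Tris buffer (15 mM MgCl2, 1 mM DTT, 0.1% BSA, 2.5% DMSO). Reaction started with 2 μM ATP and run to about 50% ATP depletion. Remaining ATP measured by KinaseGlo luminescence.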

GSK3β, sequence (P49841 whole entry, species assumed): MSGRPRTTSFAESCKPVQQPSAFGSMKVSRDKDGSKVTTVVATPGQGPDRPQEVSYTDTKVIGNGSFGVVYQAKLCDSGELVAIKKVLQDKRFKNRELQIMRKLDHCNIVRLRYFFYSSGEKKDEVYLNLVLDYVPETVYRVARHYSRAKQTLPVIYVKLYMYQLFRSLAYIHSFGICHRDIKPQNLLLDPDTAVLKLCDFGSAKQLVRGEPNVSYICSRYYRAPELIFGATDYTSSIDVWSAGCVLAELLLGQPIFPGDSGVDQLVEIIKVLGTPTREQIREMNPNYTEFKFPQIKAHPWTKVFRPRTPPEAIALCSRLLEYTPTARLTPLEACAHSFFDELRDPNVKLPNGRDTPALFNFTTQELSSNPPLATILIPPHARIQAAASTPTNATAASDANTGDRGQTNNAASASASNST

Regarding `CC[C@]1(O)[C@H](N)C[C@H](c2ccncc2NC(=O)c2ccc(F)c(-c3c(F)cc(OC)cc3F)n2)O[C@@H]1C` [Example 258, N-(4-((2R,4R,5S,6R)-4-amino-5-ethyl-5-hydroxy-6-methyltetrahydro-2H-pyran-2-yl)pyridin-3-yl)-6-(2,6-difluoro-4-methoxyphenyl)-5-fluoropicolinamide], the IC50 came to 0.04 nM in assay [1], 0.5 nM in assay [2], 6.2 nM in assay [3] and 183 nM in assay [4].

`Nc1cnc(-c2c(F)cccc2F)nc1C(=O)Nc1cnccc1[C@@H]1C[C@H](O)[C@@H](O)C2(CC2)O1` [Example 251, 5-amino-2-(2,6-difluorophenyl)-N-(4-((5S,7S,8R)-7,8-dihydroxy-4-oxaspiro[2.5]octan-5-yl)pyridin-3-yl)pyrimidine-4-carboxamide]: the IC50 amounted to 90.7 nM in assay [1], 1320 nM in assay [2], 9100 nM in assay [3] and 1110 nM in assay [4].

Turning to `C[C@@]1(O)[C@@H](O)C[C@@H](c2ccncc2NC(=O)c2ccc(F)c(-c3c(F)cccc3F)n2)O[C@H]1C1CC1` [Example 248, N-(4-((2S,4S,5R,6S)-6-cyclopropyl-4,5-dihydroxy-5-methyltetrahydro-2H-pyran-2-yl)pyridin-3-yl)-6-(2,6-difluorophenyl)-5-fluoropicolinamide], the IC50 in assay [1] was determined as 92 nM; in assay [2], 2270 nM; in assay [3], 9280 nM; in assay [4] it was 1970 nM.

Take `Cc1cc(F)c(-c2nc(C(=O)Nc3cnccc3[C@H]3C[C@@H](N)[C@](C)(O)[C@@H](C4CC4)O3)ccc2F)c(F)c1` [Example 264, N-(4-((2R,4R,5S,6R)-4-amino-6-cyclopropyl-5-hydroxy-5-methyltetrahydro-2H-pyran-2-yl)pyridin-3-yl)-6-(2,6-difluoro-4-methylphenyl)-5-fluoropicolinamide]: the IC50 in assay [1] turned out to be 0.11 nM; in assay [2], 2.4 nM; in assay [3], 8.1 nM; in assay [4] it was 1790 nM.

Consider `COc1ccc(F)c(-c2nc(C(=O)Nc3cnccc3[C@H]3C[C@@H](N)[C@](C)(O)[C@@H](C)O3)ccc2F)c1F` [Example 244, N-(4-((2R,4R,5S,6R)-4-amino-5-hydroxy-5,6-dimethyltetrahydro-2H-pyran-2-yl)pyridin-3-yl)-6-(2,6-difluoro-3-methoxyphenyl)-5-fluoropicolinamide], for which the IC50 was 0.08 nM in assay [1], 1.2 nM in assay [2], 12.2 nM in assay [3] and 809 nM in assay [4].

As to `CC[C@]1(O)[C@H](N)C[C@H](c2ccncc2NC(=O)c2ccc(F)c(-c3c(F)cc(C)cc3F)n2)O[C@@H]1C` [Example 259, N-(4-((2R,4R,5S,6R)-4-amino-5-ethyl-5-hydroxy-6-methyltetrahydro-2H-pyran-2-yl)pyridin-3-yl)-6-(2,6-difluoro-4-methylphenyl)-5-fluoropicolinamide], the IC50 in assay [1] was 0.03 nM; in assay [2], 0.4 nM; in assay [3] it was 4.8 nM; in assay [4], 218 nM.

Regarding `C[C@]1(O)[C@H](N)C[C@H](c2ccncc2NC(=O)c2nc(-c3c(F)cccc3F)c(F)cc2N)O[C@@H]1C1CC1` [Example 261, 3-amino-N-(4-((2R,4R,5S,6R)-4-amino-6-cyclopropyl-5-hydroxy-5-methyltetrahydro-2H-pyran-2-yl)pyridin-3-yl)-6-(2,6-difluorophenyl)-5-fluoropicolinamide], the IC50 in assay [1] worked out at 0.11 nM; in assay [2], 1.2 nM; in assay [3], 6.1 nM; in assay [4], 5520 nM.

As for `C[C@]1(O)[C@H](O)C[C@H](c2ccncc2NC(=O)c2ccc(F)c(-c3c(F)cccc3F)n2)O[C@@H]1C1CC1` [Example 247, N-(4-((2R,4R,5S,6R)-6-cyclopropyl-4,5-dihydroxy-5-methyltetrahydro-2H-pyran-2-yl)pyridin-3-yl)-6-(2,6-difluorophenyl)-5-fluoropicolinamide], the concentration for half-maximal inhibition (IC50) in assay [1] amounted to 4.01 nM; in assay [2], 103 nM; in assay [3] it was 185 nM; in assay [4], 1200 nM.

For the compound `CC[C@H]1O[C@@H](c2ccncc2NC(=O)c2ccc(F)c(-c3c(F)cccc3F)n2)C[C@@H](N)[C@]1(C)O` (stereo in doubt) [Example 275, N-(4-((2R,4R,5S,6R)-4-amino-6-ethyl-5-hydroxy-5-methyltetrahydro-2H-pyran-2-yl)pyridin-3-yl)-6-(2,6-difluorophenyl)-5-fluoropicolinamide], the IC50 amounted to 2.62 nM in assay [1], 51.9 nM in assay [2], 234 nM in assay [3] and 16600 nM in assay [4].

Turning to `CC[C@]1(O)[C@H](N)C[C@H](c2ccncc2NC(=O)c2nc(-c3c(F)cccc3F)ncc2N)O[C@@H]1C` [Example 239, 5-amino-N-(4-((2R,4R,5S,6R)-4-amino-5-ethyl-5-hydroxy-6-methyltetrahydro-2H-pyran-2-yl)pyridin-3-yl)-2-(2,6-difluorophenyl)pyrimidine-4-carboxamide], the IC50 in assay [1] amounted to 0.92 nM; in assay [2], 8.4 nM; in assay [3], 24 nM; in assay [4], 352 nM.

Regarding `CC(C)C1OC(c2ccncc2NC(=O)c2nc(-c3c(F)cccc3F)ncc2N)C[C@H](N)[C@H]1O` (stereo in doubt) [Example 273, 5-amino-N-(4-((2S,4S,5R,6R)-4-amino-5-hydroxy-6-isopropyltetrahydro-2H-pyran-2-yl)pyridin-3-yl)-2-(2,6-difluorophenyl)pyrimidine-4-carboxamide], the IC50 in assay [1] came to 23.1 nM; in assay [2] it was 512 nM; in assay [3], 660 nM; in assay [4], 16100 nM.

`COc1cc(F)c(-c2nc(C(=O)Nc3cnccc3[C@H]3C[C@@H](N)[C@H](O)[C@@H](C(C)(C)C)O3)ccc2F)c(F)c1` [Example 269, N-(4-((2R,4R,5S,6R)-4-amino-6-tert-butyl-5-hydroxytetrahydro-2H-pyran-2-yl)pyridin-3-yl)-6-(2,6-difluoro-4-methoxyphenyl)-5-fluoropicolinamide]: the IC50 was determined as 0.03 nM in assay [1], 0.5 nM in assay [2], 2.4 nM in assay [3] and 613 nM in assay [4].

For the compound `O=C(Nc1cnccc1[C@@H]1C[C@H](O)[C@@H](O)C2(CC2)O1)c1ccc(F)c(-c2c(F)cccc2F)n1` [Example 250, 6-(2,6-difluorophenyl)-N-(4-((5S,7S,8R)-7,8-dihydroxy-4-oxaspiro[2.5]octan-5-yl)pyridin-3-yl)-5-fluoropicolinamide], the IC50 in assay [1] turned out to be 20.1 nM; in assay [2], 499 nM; in assay [3], 3590 nM; in assay [4] it was 1040 nM.

With `Cc1cc(F)c(-c2nc(C(=O)Nc3cnccc3[C@H]3C[C@@H](N)[C@H](O)[C@@H](C(C)(C)C)O3)ccc2F)c(F)c1` [Example 270, N-(4-((2R,4R,5S,6R)-4-amino-6-tert-butyl-5-hydroxytetrahydro-2H-pyran-2-yl)pyridin-3-yl)-6-(2,6-difluoro-4-methylphenyl)-5-fluoropicolinamide], the IC50 in assay [1] was 0.03 nM; in assay [2], 0.5 nM; in assay [3] it was 3.1 nM; in assay [4], 1060 nM.
